From patent US7709500B2, “Chemical compounds” (AstraZeneca AB, priority 2002, dated 2010) come the findings set out here.

Counter-ions that a name gives are not always drawn.

For one experiment, the target named is T1, CCR3 (Homo sapiens, UniProt P51677).
T1 construct: Human eosinophils were isolated from EDTA anticoagulated peripheral blood; endogenous in cells; host or cells: human peripheral blood eosinophils
T1 sequence (P51677 1-355): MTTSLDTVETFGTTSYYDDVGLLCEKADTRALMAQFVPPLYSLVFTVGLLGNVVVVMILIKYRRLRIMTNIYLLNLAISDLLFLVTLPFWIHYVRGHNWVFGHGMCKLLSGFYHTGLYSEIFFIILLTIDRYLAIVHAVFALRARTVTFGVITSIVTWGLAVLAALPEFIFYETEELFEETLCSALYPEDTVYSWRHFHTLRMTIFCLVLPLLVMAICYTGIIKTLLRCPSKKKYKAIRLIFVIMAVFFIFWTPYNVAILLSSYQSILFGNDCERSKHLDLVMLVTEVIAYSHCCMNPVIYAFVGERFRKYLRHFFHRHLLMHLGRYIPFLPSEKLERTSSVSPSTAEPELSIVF
As to the kind of experiment: Human eosinophil chemotaxis (eotaxin mediated). The settings on record: read-out: % inhibition at 3 nM eotaxin (1 uM compound), human eosinophils. Type of experiment: cell-based.

Another experiment concerns the target T2, human H1 receptor (Homo sapiens, UniProt P35367).
T2 construct: purchased Euroscreen SA, Brussels, Belgium ES-390-M; host or cells: recombinant CHO-K1 cells (membranes)
Put plainly: Histamine H1 receptor binding, competition displacement of [3H]-pyrilamine. The settings on record: 1 nM [3H]-pyrilamine; membranes from recombinant CHO-K1 cells expressing the human H1 receptor; read-out: H1 pKi/[1328_S] (converted).

T2 sequence (P35367 whole entry): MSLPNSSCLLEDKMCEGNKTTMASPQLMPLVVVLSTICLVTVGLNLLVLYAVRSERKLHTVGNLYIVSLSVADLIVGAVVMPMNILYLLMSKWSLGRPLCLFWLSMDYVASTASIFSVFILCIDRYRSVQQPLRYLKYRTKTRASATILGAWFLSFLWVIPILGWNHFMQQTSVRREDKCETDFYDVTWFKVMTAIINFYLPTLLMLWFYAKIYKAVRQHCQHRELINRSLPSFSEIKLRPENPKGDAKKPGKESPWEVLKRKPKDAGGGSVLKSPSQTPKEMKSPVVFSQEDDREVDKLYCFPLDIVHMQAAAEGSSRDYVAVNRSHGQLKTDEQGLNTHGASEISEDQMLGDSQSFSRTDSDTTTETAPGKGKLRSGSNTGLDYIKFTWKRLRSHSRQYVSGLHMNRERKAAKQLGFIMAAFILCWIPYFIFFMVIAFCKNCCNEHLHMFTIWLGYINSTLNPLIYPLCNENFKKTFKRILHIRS

Consider `O=C(NC[C@@H](O)CN1CCC(Oc2ccc(Cl)c(Cl)c2)CC1)n1c(=O)[nH]c2ccccc21` [Example 45, N-{3-[4-(3,4-Dichlorophenoxy)piperidin-1-yl]-2-hydroxypropyl}-2-oxo-2,3-dihydro-1H-benzimidazole-1-carboxamide], for which the inhibition at 1 µM on CCR3 was found to be 102%.
Regarding `Cc1cc(Cl)ccc1OC1CCN(C[C@@H](O)CNC(=O)c2c[nH]c(=O)c3ccccc23)CC1` [Example 186, N-{(2S)-3-[4-(4-Chloro-2-methylphenoxy)piperidin-1-yl]-2-hydroxypropyl}-1-oxo-1,2-dihydroisoquinoline-4-carboxamide acetate salt], at CCR3, the inhibition at 1 µM is 104%. Further, the Ki at human H1 receptor was 12.6 nM.
With `CN(C[C@@H](O)CN1CCC(Oc2ccc(Cl)c(Cl)c2)CC1)C(=O)c1c[nH]c(=O)c2ccccc12` [Example 52, N-{(2S)-3-[4-(3,4-Dichlorophenoxy)piperidin-1-yl]-2-hydroxypropyl}-N-methyl-1-oxo-1,2-dihydroisoquinoline-4-carboxamide], the inhibition at 1 µM at CCR3 was 95%. Also, the Ki on human H1 receptor was 3.98 nM.
For `Cc1c(Cl)ccc(OC2CCN(C[C@H](O)CNC(=O)c3c[nH]c(=O)c4ccccc34)CC2)c1Cl` [Example 17, N-{(2R)-3-[4-(2,4-Dichloro-3-methylphenoxy)piperidin-1-yl]-2-hydroxypropyl}-1-oxo-1,2-dihydroisoquinoline-4-carboxamide] the same measures were 103% and 7.94 nM.
Regarding `O=C(NC[C@@H](O)CN1CCC(Oc2ccc(Cl)c(Cl)c2)CC1)[C@@H](O)c1ccccc1` [Example 58, (2S)-N-{(2R)-3-[4-(3,4-Dichlorophenoxy)piperidin-1-yl]-2-hydroxypropyl}-2-hyroxy-2-phenylethanamide], the inhibition at 1 µM on CCR3 came to 104%. Further, the Ki on human H1 receptor was 63.1 nM.
Turning to `CS(=O)(=O)c1ccc2c(C(=O)NC[C@@H](O)CN3CCC(Oc4ccc(C#N)c(Cl)c4)CC3)c[nH]c(=O)c2c1` [Example 206, N-{(2R)-3-[4-(3-Chloro-4-cyanophenoxy)piperidin-1-yl]-2-hydroxypropyl}-7-(methylsulfonyl)-1-oxo-1,2-dihydroisoquinoline-4-carboxamide], on CCR3, the inhibition at 1 µM was determined as 99%.
Regarding `N#Cc1ccc(OC2CCN(C[C@H](O)CNC(=O)c3c[nH]c(=O)c4ccccc34)CC2)cc1Cl` [Example 197, N-{(2R)-3-[4-(3-Chloro-4-cyanophenoxy)piperidin-1-yl]-2-hydroxypropyl}-1-oxo-1,2-dihydroisoquinoline-4-carboxamide], the inhibition at 1 µM at CCR3 was determined as 103%.
As for `NC(=O)c1c(OC2CCN(C[C@H](O)CNC(=O)c3c[nH]c(=O)c4ccccc34)CC2)ccc(Cl)c1Cl` [Example 132], the inhibition at 1 µM on CCR3 came out at 101%.
In the case of `O=C(NC[C@@H](O)CN1CCC(Oc2ccc(Cl)c(Cl)c2)CC1)c1c[nH]c2ccccc12` [Example 47, N-{(2R)-3-[4-(3,4-Dichlorophenoxy)piperidin-1-yl]-2-hydroxypropyl}-1H-indole-3-carboxamide], the inhibition at 1 µM at CCR3 is 104%. For the same molecule, on human H1 receptor, the Ki is 7.94 nM.
Take `O=C(NC[C@@H](O)CN1CCC(Oc2ccc(Cl)c(Cl)c2)CC1)c1n[nH]c(=O)c2ccccc12` [Example 46, N-{(2R)-3-[4-(3,4-Dichlorophenoxy)piperidin-1-yl]-2-hydroxypropyl}-oxo-3,4-dihydrophthalazine-1-carboxamide]: the inhibition at 1 µM at CCR3 worked out at 105%.
As for `Cc1c(Cl)ccc(OC2CCN(C[C@H](O)CNC(=O)c3c[nH]c(=O)c4cc(S(C)(=O)=O)ccc34)CC2)c1Cl` [Example 215, N-{(2R)-3-[4-(2,4-Dichloro-3-methylphenoxy)piperidin-1-yl]-2-hydroxypropyl}-7-(methylsulfonyl)-1-oxo-1,2-dihydroisoquinoline-4-carboxamide acetate salt], the inhibition at 1 µM on CCR3 is 103%.
Same read-out and setting: as for `O=C(NC[C@@H](O)CN1CCC(Oc2ccc(Cl)c(Cl)c2)CC1)c1c[nH]c(=O)c2ccccc12` [Example 10, N-{(2R)-3-[4-(3,4-Dichlorophenoxy)piperidin-1-yl]-2-hydroxypropyl}-1-oxo-1,2-dihydroisoquinoline-4-carboxamide], the figure is 106%.
For the molecule `CN(C[C@@H](O)CN1CCC(Oc2ccc(Cl)c(Cl)c2)CC1)C(=O)c1n[nH]c2ccccc12` [Example 53, N-{(2S)-3-[4-(3,4-Dichlorophenoxy)piperidin-1-yl]-2-hydroxypropyl}-N-methyl-1H-indazole-3-carboxamide], the inhibition at 1 µM at CCR3 was found to be 105%. Moreover, the Ki on human H1 receptor is 7.94 nM.
